In patent publication US12162935B2, “Regimens, compositions and methods with capsaicin and TNF-alpha inhibitor” (priority 2018, dated 2024):

Tests used:
TRPV1 = TRPV1 (Homo sapiens, UniProt Q8NER1); test: Ca2+ imaging (Fluo-4AM) in HEKVR1 cells; assay type: cell-based; settings: capsaicin 2.5 μM
Source text: NE has been linked to immediate increase in ROS generation and persistent oxidative stress in the cochlea2, leading to generation of reactive oxygen species such as: hydroxyl […] (OH^−), superoxide anion (O^2—) and hydrogen peroxide (H2O2).

rat cochlea [1] = test: Cochlear gene expression by qPCR after noise exposure; assay type: in vivo
Protocol: Cochleae were pared down to the bone, crushed in liquid nitrogen followed by extraction in 500 μl of TRI reagent. 0.1 ml of chloroform was added, and the tube was shaken vigorously for 15 seconds and centrifuged at 12,000×g for 15 min. RNA was extracted by washing the pellet with 0.5 ml ice-cold isopropanol followed by cold 75% treated ethanol. The ethanol was removed and the tube was air dried briefly. The RNA pellet was resuspended in nuclease free water and RNA levels were determined using optical density readings corresponding to wavelengths of 260 nm, 280 and 320 nm using a spectrophotometer (Eppendorf BioPhotometer, Hamburg, Germany).
500 ng of total RNA was converted to cDNA using iScript cDNA Synthesis Kit (Bio-Rad, Hercules, CA). The reaction mixture was set up as follows: Ing of total RNA, 4 μl of iScript reaction mix, 1 μl of iScript reverse transcriptase, nuclease free water to bring the total volume to 20 μl. The reaction mix was incubated at 25° C. for 5 min, 42° C. for 30 minutes and 85° C. for 5 minutes. This cDNA reaction mix was used for real time PCR, as described previously [Mukherjea et al., 2006]. Gene specific primer pairs were used for the various reactions and mRNA expression levels were normalized to the levels of GAPDH. The primer sets were purchased from Sigma Genosys (St. Louis, MO), and were as follows: […]

rat cochlea [2] = test: Cochlear gene expression by q-PCR (cisplatin study); assay type: in vivo
UMSCC-10b cells = test: SCID mouse xenograft model; assay type: in vivo
Protocol: SCID mice (from Envigo, 5-6 weeks of age) were injected subcutaneously with 1.5×10^6 mycoplasma-free UMSCC 10B cells in one flank. […] At the time of each treatment, tumor volumes were calculated based on the formula: volume=width2×(length/2) [Jajoo et al.]. Mice were killed 24 h after the eleventh treatment. All procedures were performed in accordance with relevant guidelines and regulations of SIU School of Medicine.

UB/OC1 cells = test: Bax/Bcl-2 ratio in UB/OC1 cells; assay type: cell-based, mouse
CB2 receptor = test: Immunoblotting for CB1 and CB2 receptors; assay type: cell-based, mouse; settings: capsaicin 2.5 μM 24 h
Protocol: FIG. 10.A. UBOC-1 cells were treated with capsaicin (2.5 μM) for 24 h. Total protein was extracted and immunoblotting was performed for CB1 and CB2 receptors. B-actin was used for housekeeping and loading control. Capsaicin increased CB2 receptor staining. FIG. 10.B. Cochleae were harvested from rats treated with either oral PBS or oral capsaicin (20 mg/kg) for 24 h. Total RNA was harvested, converted to c-DNA and probed for CB2 receptor expression by q-PCR. GAPDH was used as housekeeping gene. […] FIG. 10.C. and FIG. 10.D. Cochleae were harvested from rats treated with PBS, fixed in 4% paraformaldehyde in PBS for 8 h. They were then decalcified in EDTA (10 mM), and mid modiolar sections of the cochleae were probed for the cannabinoid receptors subtypes, CB1 (FIG. 10.C.) and CB2 (FIG. 10.D.), while nuclei were stained with DAPI. Fluorescent images were obtained with a Leica confocal microscope. […] Magnification for OHC, spiral ganglion cells and stria vascularis (40×). Similar images were obtained from 3 different animals.
Total cell lysates were prepared using ice-cold lysis buffer containing 50 mM Tris HCl, 10 mM MgCl2 and 1 mM EDTA in the presence of protease inhibitors mixture and phosphatase inhibitor 1 (1:100) (Sigma, St. Louis, MO). The lysates were kept on ice for 5 min followed by centrifugation. The clear supernatant was transferred to a clean tube and discarded the pellet. […]

UB/OC-1 cells = test: Cell viability assay (MTS assay); assay type: cell-based; settings: capsaicin 2.5 μM prior to cisplatin 20 μM
Protocol: The in vitro UB/OC1 cell proliferation was performed by using the CellTiter 96® AQueous One Solution Cell Proliferation Assay Kit (Promega, Madison, WI), according to the manufacturer's instructions. 3,500 cells were seeded per well into a 96-well plate. […] After 48 h, 20 μl of CellTiter 96 AQueous One Solution reagent was added to each well in 100 μl of total volume of media. Cells were incubated for 1 h, and recorded absorbance at 490 nm using an ELISA plate reader. The absorbance is directly proportional to the number of living cells and is expressed as a percent relative to vehicle-treated cells.

Chain of TRPV1 (Q8NER1 whole entry, species assumed): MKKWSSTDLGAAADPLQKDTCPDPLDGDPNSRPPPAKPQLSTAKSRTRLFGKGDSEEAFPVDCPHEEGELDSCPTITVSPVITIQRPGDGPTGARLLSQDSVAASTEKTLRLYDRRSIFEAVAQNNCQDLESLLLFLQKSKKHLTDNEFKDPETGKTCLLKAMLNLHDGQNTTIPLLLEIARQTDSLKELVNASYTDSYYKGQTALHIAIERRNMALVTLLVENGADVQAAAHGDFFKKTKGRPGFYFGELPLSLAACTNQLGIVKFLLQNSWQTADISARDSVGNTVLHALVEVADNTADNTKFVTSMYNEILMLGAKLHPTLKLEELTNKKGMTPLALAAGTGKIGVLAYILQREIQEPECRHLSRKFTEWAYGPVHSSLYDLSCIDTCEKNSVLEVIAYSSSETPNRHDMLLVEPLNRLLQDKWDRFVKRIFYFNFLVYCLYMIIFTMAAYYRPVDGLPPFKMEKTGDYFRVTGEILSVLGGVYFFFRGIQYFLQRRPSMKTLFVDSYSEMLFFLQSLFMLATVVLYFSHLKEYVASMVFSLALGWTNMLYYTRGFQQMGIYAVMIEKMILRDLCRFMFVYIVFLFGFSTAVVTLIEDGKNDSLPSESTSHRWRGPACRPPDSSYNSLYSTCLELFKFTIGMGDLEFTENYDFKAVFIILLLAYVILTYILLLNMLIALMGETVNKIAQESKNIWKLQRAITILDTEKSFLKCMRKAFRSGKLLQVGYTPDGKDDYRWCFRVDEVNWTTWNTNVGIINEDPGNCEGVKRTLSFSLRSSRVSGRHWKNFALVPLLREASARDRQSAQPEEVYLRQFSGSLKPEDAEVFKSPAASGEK

COc1cc(CNC(=O)CCCC/C=C/C(C)C)ccc1O [capsaicin, 8-methyl-N-vanillyl-trans-6-nonenamide]
increase in Ca^2+ over basal fluorescence (TRPV1): 741±22%
Bax gene expression over oral PBS control (rat cochlea [1]; oral Cap+NE): 0.86±0.1 fold
COX2 gene expression over oral PBS control (rat cochlea [1]; oral Cap+NE): 0.84±0.2 fold
NOX3 gene expression over oral PBS control (rat cochlea [1]; oral Cap+NE): 0.5±0.2 fold
TNF-α gene expression over oral PBS control (rat cochlea [1]; oral Cap+NE): 0.9±0.1 fold
TRPV1 gene expression over oral PBS control (rat cochlea [1]; oral Cap+NE): 0.85±0.2 fold
Bax gene expression over oral PBS control (rat cochlea [1]; oral capsaicin alone): 0.69±0.1 fold
COX2 gene expression over oral PBS control (rat cochlea [1]; oral capsaicin alone): 1±0.1 fold
NOX3 gene expression over oral PBS control (rat cochlea [1]; oral capsaicin alone): 0.7±0.2 fold
TNF-α gene expression over oral PBS control (rat cochlea [1]; oral capsaicin alone): 1±0.15 fold
TRPV1 gene expression over oral PBS control (rat cochlea [1]; oral capsaicin alone): 0.9±0.1 fold
expression of TRPV1, NOX3 and iNOS (rat cochlea [2]; TT-capsaicin 24 h prior to cisplatin): significant reduction
expression of TRPV1, NOX3 and iNOS (rat cochlea [2]; capsaicin alone): did not significantly change
CB2 receptor expression in the rat cochlea (rat cochlea [2]; oral capsaicin): increased the expression of CB2 receptor
Bax/Bcl-2 ratio, rat cochlea (rat cochlea [2]; oral capsaicin prior to cisplatin): significant decrease
Bax/Bcl-2 ratio, rat cochlea (rat cochlea [2]; single agent (cisplatin or oral capsaicin alone)): less than half of that observed following cisplatin alone
cisplatin tumor growth curves (UMSCC-10b cells; oral capsaicin 0.5 mg/kg + cisplatin 2 mg/kg ip): shifted the cisplatin tumor growth curves to the right
tumor growth (volume, size, weight) (UMSCC-10b cells; single agent: cisplatin 2 mg/kg ip or oral capsaicin 0.5 mg/kg): decreased tumor size and weight, but not significantly
Bax/Bcl-2 ratios (UB/OC1 cells): 1.1±0.2
CB2 expression (CB2 receptor): increased CB2 expression
cisplatin-induced cell killing (UB/OC-1 cells): blocked cisplatin-induced cell killing
